Measured values from US5049637A, “1,2,3,4,10,14b-hexahydrodibenzo[c,f]pyrazino-[1,2-a]azepino derivatives and 10-aza, 10-oxa and 10-thia analogues” (Monash University, priority 1987, dated 1991).
Counter-ions that a name gives are not always drawn.

Legend:
[1] = tested on: bronchoconstrictor effects of histamine and 5-hydroxytryptamine; assay: Histamine and 5-hydroxytryptamine induced bronchoconstriction in guinea pigs; type: in vivo, guinea pig; conditions: Cavia porcellus, intravenous, read-out: Intravenous dose reducing histamine and 5-hydroxytryptamine bronchoconstriction
Method: (§1) The compound of Example 2 was found in low concentrations to inhibit contractions of the guinea-pig isolated ileum and rat isolated stomach strip caused by histamine and 5-hydroxytryptamine respectively. […] Concomitantly, the depressor effects of histamine were blocked, as were the pressor effects of 5-hydroxytryptamine for over 30 minutes. The pressor effects of 5-hydroxytryptamine in anaesthetised and pithed rats were inhibited by intravenous doses of 0.3-1.0 mg/kg body weight. Slightly higher doses reduced the bradycardia and the depressor response (the Bezold-Jarisch reflex mediated by 5-HT3 receptors) to 5-hydroxytryptamine in anaesthetised rats. The drug inhibited oedema in the rat paw caused by intraplantar 5-hydroxytryptamine. […] In mice it inhibited diarrhoea caused by L-5-hydroxytryptophan. In guinea pigs, intravenous doses of 0.03 mg/kg and above reduced the bronchoconstrictor effects of histamine and 5-hydroxytryptamine.
In cats, the effects of the ganglion stimulant McNeil -A-343 and histamine were reduced. Following intravenous injection into guinea-pigs, […] reduced histamine and 5-hydroxytryptamine induced broncho-constriction. Concentrations of 1 μg/ml or greater relaxed the isolated rat uterus in vitro.
The compound of Example 4 when injected into rats at intravenous doses of 0.3 mg/kg or greater reduced the pressor effects of 5-hydroxytryptamine and also the depressor effects of histamine. In cats, the effect of histamine was reduced after these doses also.
(§2) Thus doses of 1 mg/kg given intraperitoneally attenuated the facilitation of spinal reflex activity caused by p-chloroamphetamine, and also the facilitation of spinal reflexes induced by fenfluramine in spinal and decerebrate rats. […] The drug in doses of 10 and 20 mg/kg intraperitoneally and in doses of 20 mg/kg by mouth attenuated morphine-induced catalepsy. We conclude therefore that this drug is an orally active drug with central actions, particularly affecting serotonergic mechanisms, but has no effect in vitro (Table 1). […] Thus it was found after intravenous doses of 0.03 mg/kg to reduce histamine and 5-hydroxytryptamine bronchoconstriction in the guinea pig.

[2] = tested on: isolated guinea pig ileum (KCl-induced contractions); assay: Block of KCl-induced contraction of the isolated guinea-pig ileum; conditions: block of contractions of isolated guinea pig ileum induced by KCl
Method: (§3) Compounds according to formula I were tested for their ability to block contractions of the isolated guinea pig ileum induced by KCl, carbachol, or histamine at a concentration of 10^-7 M. Ileum preparations were prepared according to standard methodology. The concentrations shown are the minimum required to show activity.

[3] = tested on: isolated guinea pig ileum (histamine-induced contractions); assay: Block of histamine-induced contraction of the isolated guinea-pig ileum; conditions: for minimal effective concentration: Cavia porcellus, isolated guinea pig ileum, histamine 10^-7 M, read-out: Effect on Histamine: minimum concentration required to show activity; for Effect on Histamine: block of contractions of isolated guinea pig ileum induced by histamine at 10^-7 M
Method: as §1, §3

[4] = tested on: spinal reflex activity (serotonergic mechanisms); assay: Facilitation of spinal reflexes by p-chloroamphetamine, fenfluramine or clonidine in spinal and decerebrate rats; type: in vivo, rat
Method: as §2

[5] = tested on: central nervous system (morphine induced catalepsy); assay: Morphine induced catalepsy in the rat; type: in vivo
Method: as §2

[6] = tested on: isolated guinea pig ileum (carbachol-induced contractions); assay: Block of carbachol-induced contraction of the isolated guinea-pig ileum; conditions: block of contractions of isolated guinea pig ileum induced by carbachol
Method: as §3

[7] = tested on: effects of histamine and 5-hydroxytryptamine on blood pressure and heart rate; assay: Effects of histamine and 5-hydroxytryptamine on blood pressure and heart rate in the chloral-anaesthetized rat; type: in vivo
[8] = Penetration into the central nervous system; type: in vivo; conditions: in vivo
[9] = tested on: central nervous system (spinal flexor reflex); assay: Spinal flexor reflex in the rat; type: in vivo; conditions: mianserin in low doses
[10] = tested on: central nervous system (L-5-hydroxytryptophan-induced head twitch); assay: L-5-hydroxytryptophan-induced head twitch in the mouse; type: in vivo; conditions: mianserin in low doses

| Structure (SMILES) | Effect on KCl [2] | minimal effective concentration [3] [µM] | Effect on Histamine [3] | Effect on Carbachol [6] | further results |
| --- | --- | --- | --- | --- | --- |
| NC(=O)N1CCN2c3ccccc3Cc3ccccc3C2C1 (stereo not drawn) [Example 5, 2-Carboxamido-1,2,3,4,10,14b-hexahydrodibenzo [c,f]pyrazino[1,2-a]azepine] | - (no effect) | 0.01 to 0.1 | ++ | - (no effect) | minimal effective dose [1]: 0.03 mg/kg; Facilitation of spinal reflex activity caused by p-chloroamphetamine ([4]; 1 mg/kg intraperitoneally): attenuated; Facilitation of spinal reflexes induced by fenfluramine ([4]; 1 mg/kg intraperitoneally, spinal and decerebrate rats): attenuated; Facilitation of spinal reflexes caused by clonidine ([4]; at these dose levels (1 mg/kg intraperitoneally)): did not antagonise; Morphine-induced catalepsy ([5]; 20 mg/kg by mouth): attenuated; Morphine-induced catalepsy ([5]; 10 and 20 mg/kg intraperitoneally): attenuated |
| CCNC(=NC#N)N1CCN2c3ccccc3Cc3ccccc3C2C1 (stereo not drawn) [Example 7, 2-(N-Cyano-N'-ethyl-carboxamidino)-1,2,3,4,10,14b-hexahydrodibenzo[c,f]pyrazino[1,2-a]azepine] | - (no effect) | 0.01 to 0.1 | ++ | - (no effect) | – |
| N=C(NCCOc1ccccc1)N1CCN2c3ccccc3Cc3ccccc3C2C1 (stereo not drawn) [Example 9, 2-(N-2-Phenoxyethylcarboxamidino)-1,2,3,4,10,14b-hexahydrodibenzo[c,f]pyrazino[1,2-a]azepine hydrochloride] | - (no effect) | 0.01 to 0.1 | ++ | - (no effect) | – |
| CCNC(=O)N1CCN2c3ccccc3Cc3ccccc3C2C1 (stereo not drawn) [Example 10, 2-(N-Ethylcarboxamido)-1,2,3,4,10,14b-hexahydrodibenzo[c,f]pyrazino[1,2-a]azepine] | - (no effect) | 0.1 | + (block) | - (no effect) | – |
| CCNC(=N)N1CCN2c3ccccc3Cc3ccccc3C2C1 (stereo not drawn) [Example 11, 2-(N-Ethylcarboxamidino)-1,2,3,4,10,14b-hexahydrodibenzo[c,f]pyrazino[1,2-a]azepine hydrochloride] | - (no effect) | 0.01 to 0.1 | ++ | - (no effect) | Block of effect on heart rate of both histamine and 5-hydroxytryptamine [7]: not; Effect on blood pressure of both histamine and 5-hydroxytryptamine [7]: complete block |
| CCNC(=S)N1CCN2c3ccccc3Cc3ccccc3C2C1 (stereo not drawn) [Example 12, 2-(N-Ethylthiocarboxamido)-1,2,3,4,10,14b-hexahydrodibenzo[c,f]pyrazino[1,2-a]azepine] | - (no effect) | 0.01 to 0.1 | ++ | - (no effect) | – |
| NC(=O)CN1CCN2c3ccccc3Cc3ccccc3C2C1 (stereo not drawn) [Example 13, 2-(Carboxamidomethyl)-1,2,3,4,10,14b-hexahydrodibenzo [c,f]pyrazino[1,2-a]azepine hydrochloride] | - (no effect) | 0.01 to 0.1 | ++ | - (no effect) | Ability to penetrate into the CNS [8]: able to penetrate into the CNS |
| NC(=O)CCN1CCN2c3ccccc3Cc3ccccc3C2C1 (stereo not drawn) [Example 14, 2-(2-Carboxamidoethyl)-1,2,3,4,10,14b-hexahydrodibenzo[c,f]pyrazino[1,2-a]azepine] | - (no effect) | 0.01 to 0.1 | ++ | - (no effect) | Ability to penetrate into the CNS [8]: able to penetrate into the CNS |
| CN1CCN2c3ccccc3Cc3ccccc3C2C1 (stereo not drawn) [mianserin, 1,2,3,4,10,14b-hexahydro-2-methyldibenzo [c,f]pyrazino[1,2-a]azepine, reference compound] | – | – | – | – | Action in spinal flexor reflex test [9]: effective; Action in L-5-hydroxytryptophan-induced head twitch test [10]: effective; Action in morphine induced catalepsy test ([5]; rat, mianserin in low doses): effective |
